# Data as given in patent publication US12292445B2, “Methods of selecting subjects for treatment with metabolomic modulators” (priority 2018, dated 2025).
# Key:
# [1] = test system: gamma-glutamyltranspeptidase (GGT); assay: GGT activity assay, fecal samples exposed to GGsTop; assay type: biochemical, mouse; settings: all fecal samples (SPF CD, SPF KD, AkkPb KD, AkkPb CD), 500 uM GGsTop
# Method: GGT activity was measured as previously described. For anaerobic cultures, bacteria were seeded at 3×10^5 cfu/ml in CD- and KD-based media. 1 ml bacterial suspension was pelleted and frozen at −80° C. for 1 hr. Separate aliquots of the same suspension were plated in BHI mucin agar media or RCM and incubated at 37° C. in a Coy anaerobic chamber for later data normalization by bacterial cfu. Pellets were then resuspended in 250 ul lysis buffer (50 mM Tris-HCl with 1 ug/ml lysozyme) and incubated on ice for 30 min. For fecal samples, one pellet was weighed and homogenized in 1 ml lysis buffer. Bacterial and fecal suspensions were then sonicated (QSonica 125) and centrifuged at 12000×g for 10 min at 4° C. 20 ul supernatant was mixed with 180 ul substrate buffer (2.9 mM L-gamma-glutamyl-3-carboxy-4-nitroanilide (Gold Bio), 100 mM of glycylglycine (Sigma Aldrich), 100 mM Tris-HCl), and 500 uM GGsTop (if noted). Absorbance at 405 nm denoting production of 3-carboxy-4-nitroaniline was measured every minute for 1 hr at 37° C. using an automated multimode plate reader (Biotek Synergy H1).
# P. merdae = assay: Cross-feeding in vitro assay, P. merdae viability after GGsTop pre-treatment; assay type: cell-based, Parabacteroides merdae; settings: 500 uM GGsTop pre-treatment, 2 hours, 37° C., pilot experiments
# Method: (§1) Cross-feeding was measured as previously described. A. muciniphila was embedded at 2×10^6 cfu/ml in 5 ml pre-reduced CD or KD-based liquid media supplemented with 1% agar at the bottom of an anaerobic tube, and P. merdae was overlaid above it at 6×10^6 cfu/ml in 5 ml pre-reduced M9 minimal media. Diet-based media were generated by aseptically suspending mouse KD vs. CD diets, described above, to 2 kcal/ml in M9 media. Pilot experiments confirmed no ectopic translocation of embedded A. muciniphila from the agar compartment into the above M9 liquid compartment. For each time point, aliquots were taken from the top and bottom compartments, plated in a dilution series in rich media (RCM for P. merdae and BHI +0.05% mucins for A. muciniphila), and colonies were counted. For GGsTop pre-treatment experiments, P. merdae was incubated with 500 uM GGsTop vs vehicle in RCM media at 37° C. for 2 hours and then washed with sterile media.
# A. muciniphila = assay: Cross-feeding in vitro assay, A. muciniphila growth; assay type: cell-based, Akkermansia muciniphila; settings: A. muciniphila in CD agar exposed to P. merdae pre-treated with 500 uM GGsTop vs vehicle, 24 hours
# Method: as §1
# SPF Swiss Webster mice = assay: 6-Hz psychomotor seizure assay; assay type: in vivo; settings: SPF mice fed CD, oral gavage 13.3 mg/kg every 12 hours for 3 days, vs vehicle
# Method: The 6-Hz test was conducted as previously described. […] All subsequent experimental cohorts contained male mice. One drop (˜50 ul) of 0.5% tetracaine hydrochloride ophthalmic solution was applied to the corneas of each mouse 10-15 min before stimulation. Corneal electrodes were coated with a thin layer of electrode gel (Parker Signagel). A constant-current current device (ECT Unit 57800, Ugo Basile) was used to deliver current at 3 sec duration, 0.2 ms pulse-width and 6 pulses/s frequency. CC50 (the intensity of current required to elicit seizures in 50% of the experimental group) was measured as a metric for seizure susceptibility. […] Locomotor behavior was recorded using Ethovision XT software (Noldus) and quantitative measures for falling, tail dorsiflexion (Straub tail), forelimb clonus, eye/vibrissae twitching and behavioral remission were scored manually. […] Latency to exploration (time elapsed from when an experimental mouse is released into the observation cage (after corneal stimulation) to its first lateral movement) was scored using Ethovision and manually with an electronic timer. […] Seizure threshold (CC50) was determined as previously described, using the average log interval of current steps per experimental group, where sample n is defined as the subset of animals displaying the less frequent seizure behavior. […]
# Kcnal−/− mice = assay: Kcnal seizure recordings (EEG); assay type: in vivo, mouse; settings: CD-fed SPF Kcnal−/− mice, oral gavage 13.3 mg/kg every 12 hours
# Method: EEGs were recorded from male and female Kcnal^−/− mice at 6-7 weeks of age. Kcnal^+/+ littermates were used as controls. There were no significant differences observed between males and females in seizure frequency and duration. Data presented include both sexes. Mice were anesthetized with isoflurane (5% induction, 2% maintenance) and eye ointment applied to each eye. Fur was removed along the head, and the area was cleaned with three alternative scrubs of chlorohexidine and 70% isopropanol. In a biosafety cabinet, mice were positioned in a stereotaxic apparatus (Harvard Biosciences) and 1 mg/kg lidocaine +1 mg/kg bupivacaine was applied locally along the incision site. […]
# During EEG recordings, animals were freely moving and maintained on experimental diet. […] Simultaneous video recordings of behavioral seizures were correlated with EEG recordings and scored based on an adapted Racine scale and defined by 5 stages: 1) myoclonic jerk, 2) head stereotypy and facial clonus, 3) bilateral and alternating forelimb/hindlimb clonus, 4) rearing and falling, and 5) generalized tonic-clonic episodes. Data were analyzed by a blinded researcher using Neuroscore CNS Software (DSI). EEG signals were filtered using a 10 Hz high pass filter, and seizure events were detected by blinded manual scoring. […]
# [2] = test system: gamma-glutamyltranspeptidase (GGT); assay: GGT activity assay in cultured P. merdae; assay type: biochemical, Parabacteroides merdae; settings: conventionally-cultured P. merdae, 500 uM GGsTop vs vehicle
# Method: as §1
# GGT activity was measured as previously described. For anaerobic cultures, bacteria were seeded at 3×10^5 cfu/ml in CD- and KD-based media. 1 ml bacterial suspension was pelleted and frozen at −80° C. for 1 hr. […] Absorbance at 405 nm denoting production of 3-carboxy-4-nitroaniline was measured every minute for 1 hr at 37° C. using an automated multimode plate reader (Biotek Synergy H1).
smiles,measurement,setting,value
"COP(=O)(CCC(N)C(=O)O)Oc1cccc(CC(=O)O)c1 (stereo not drawn) [GGsTop, 3-[[(3-amino-3-carboxypropyl)methoxyphosphinyl]oxy]benzeneacetic acid]",fecal GGT activity signal,[1],eliminated the detected signals
same,P. merdae viability,P. merdae,no significant effect
same,A. muciniphila growth,A. muciniphila,increased growth
same,6-Hz seizure threshold (CC50),SPF Swiss Webster mice,increases in seizure thresholds toward levels seen in SPF KD mice
same,seizures per day (EEG),Kcnal−/− mice,significant decrease in seizures per day
same,GGT activity in P. merdae,[2],ablated
